According to patent publication US20230339891A1, “URACIL DERIVATIVES AS MER-AXL INHIBITORS” (BRISTOL-MYERS SQUIBB COMPANY, priority 2018, published 2023):

What was measured:
GST-MERTK 578-872 = GST-MERTK 578-872 (Homo sapiens (Human), UniProt Q12866); assay: MERTK kinase homogeneous time resolved fluorescence (HTRF) binding assay; conditions: 1 nM kinase, fluorescein-labeled kinase tracer at Kd, 60 minutes at room temperature; read-out: Mer HTRF IC50
Protocol: (§1) MERTK, AXL, TYRO3 Kinase Homogeneous Time Resolved Fluorescence (HTRF) Assay
(§2) Assays were performed in black, flat-bottom, 1536-well plates. The reactions were incubated at room temperature for 60 minutes, following which the HTRF signals, ratio of fluorescence intensities at emission wavelengths for fluorescein acceptor (520 nm) and terbium donor (495 nm), the 520/495 ratio, were measured on the Envision Plate reader. Inhibition data were calculated from the 520/495 ratio generated by the no protein control reactions for 100% inhibition and vehicle-only reactions for 0% inhibition, and dose response curves generated to determine the concentration required for inhibiting 50% of the HTRF signal (IC50). Compounds were dissolved at 10 mM in dimethylsulfoxide (DMSO) and evaluated at eleven concentrations.

HIS-AXL 473-End = HIS-AXL 473-End (Homo sapiens (Human), UniProt P30530); assay: AXL kinase homogeneous time resolved fluorescence (HTRF) binding assay; conditions: 1 nM kinase, fluorescein-labeled kinase tracer at Kd, 60 minutes at room temperature
Protocol: as §1, §2

Sequence of HIS-AXL 473-End (P30530 473-894): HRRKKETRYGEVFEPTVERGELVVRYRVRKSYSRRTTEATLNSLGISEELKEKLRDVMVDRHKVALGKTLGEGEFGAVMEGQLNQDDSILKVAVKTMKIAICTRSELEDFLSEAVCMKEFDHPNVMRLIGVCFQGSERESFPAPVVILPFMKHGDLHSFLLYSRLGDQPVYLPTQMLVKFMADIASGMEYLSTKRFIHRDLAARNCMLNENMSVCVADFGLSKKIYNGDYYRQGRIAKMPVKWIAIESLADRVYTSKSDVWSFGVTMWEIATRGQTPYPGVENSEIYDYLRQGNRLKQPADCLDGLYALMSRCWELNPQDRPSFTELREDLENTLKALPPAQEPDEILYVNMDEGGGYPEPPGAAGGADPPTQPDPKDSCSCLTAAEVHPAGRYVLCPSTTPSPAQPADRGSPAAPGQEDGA
Sequence of GST-MERTK 578-872 (Q12866 578-872): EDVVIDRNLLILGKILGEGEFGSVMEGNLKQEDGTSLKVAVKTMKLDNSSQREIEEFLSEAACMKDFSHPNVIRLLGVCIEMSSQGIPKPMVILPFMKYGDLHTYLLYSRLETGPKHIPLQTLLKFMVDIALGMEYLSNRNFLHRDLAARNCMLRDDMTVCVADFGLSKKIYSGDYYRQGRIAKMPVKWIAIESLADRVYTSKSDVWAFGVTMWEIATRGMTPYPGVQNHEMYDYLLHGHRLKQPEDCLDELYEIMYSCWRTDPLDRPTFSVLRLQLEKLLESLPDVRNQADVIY

| Compound | IC50 (GST-MERTK 578-872) | IC50 (HIS-AXL 473-End) |
| --- | --- | --- |
| CC(C)n1cc(C(=O)Nc2ccc(Oc3ccnc(Nc4ccc(C(=O)N(C)C)c(N5CCN(S(C)(=O)=O)CC5)n4)c3)c(F)c2)c(=O)n(-c2ccc(F)cc2)c1=O [Example 97, N-{4-[(2-{[5-(Dimethylcarbamoyl)-6-(4-methanesulfonylpiperazin-1-yl)pyridin-2-yl]amino}pyridin-4-yl)oxy]-3-fluorophenyl}-3-(4-fluorophenyl)-2,4-dioxo-1-(propan-2-yl)-1,2,3,4-tetrahydropyrimidine-5-carboxamide] | 1 nM | 0.3 nM |
| CC(C)n1cc(C(=O)Nc2ccc(Oc3ccnc(Nc4ccnc(N5CCCC5)n4)c3)c(F)c2)c(=O)n(C(C)C)c1=O [Example 108] | 9.1 nM | 3.8 nM |
| CC(C)n1cc(C(=O)Nc2ccc(Oc3ccnc(Nc4ccc(C(=O)NCC(C)(C)O)cn4)c3)c(F)c2)c(=O)n(-c2ccc(F)cc2)c1=O [Example 92, N-(3-Fluoro-4-{[2-({5-[(2-hydroxy-2-methylpropyl)carbamoyl]pyridin-2-yl}amino)pyridin-4-yl]oxy}phenyl)-3-(4-fluorophenyl)-2,4-dioxo-1-(propan-2-yl)-1,2,3,4-tetrahydropyrimidine-5-carboxamide] | 1.9 nM | 0.4 nM |
| O=C(Nc1ccc(Oc2ccnc(Nc3ccc(Cl)cn3)c2)c(F)c1)c1cn(C2CC2)c(=O)n(-c2ccc(F)cc2)c1=O [Example 36, N-[4-({2-[(5-chloropyridin-2-yl)amino]pyridin-4-yl}oxy)-3-fluorophenyl]-1-cyclopropyl-3-(4-fluorophenyl)-2,4-dioxo-1,2,3,4-tetrahydropyrimidine-5-carboxamide] | 38 nM | 11 nM |
| CC(C)n1cc(C(=O)Nc2ccc(Oc3ccnc(Nc4ccc(C#N)c(N5CCC(S(C)(=O)=O)CC5)n4)c3)c(F)c2)c(=O)n(-c2ccc(F)cc2)c1=O [Example 123] | 1.8 nM | 1.4 nM |
| CC(C)n1cc(C(=O)Nc2ccc(Oc3ccnc(Nc4cc(N5CCOCC5)ccn4)c3)c(F)c2)c(=O)n(-c2ccc(F)cc2)c1=O [Example 22] | 49 nM | 8.9 nM |
| CC(C)n1cc(C(=O)Nc2ccc(Oc3ccnc(Nc4ccnc(N5CCCC5)n4)c3)c(F)c2)c(=O)n(Cc2ccccc2)c1=O [Example 106] | 8.2 nM | 8.2 nM |
| CC(C)n1cc(C(=O)Nc2ccc(Oc3ccnc(Nc4ccc(C#N)c(N5CCC(O)(C(F)(F)F)CC5)n4)c3)c(F)c2)c(=O)n(-c2ccc(F)cc2)c1=O [Example 122] | 6 nM | 9.8 nM |
| CC(C)n1cc(C(=O)Nc2ccc(Oc3ccnc(Nc4ccc(C#N)c(N5CCN(S(C)(=O)=O)CC5)n4)c3)c(F)c2)c(=O)n(-c2ccc(F)cc2)c1=O [Example 116, N-{4-[(2-{[5-cyano-6-(4-methanesulfonylpiperazin-1-yl)pyridin-2-yl]amino}pyridin-4-yl)oxy]-3-fluorophenyl}-3-(4-fluorophenyl)-2,4-dioxo-1-(propan-2-yl)-1,2,3,4-tetrahydropyrimidine-5-carboxamide] | 1 nM | 1.5 nM |
| CC(C)n1cc(C(=O)Nc2ccc(Oc3ccnc(Nc4ccc(C(=O)NCC(F)F)cn4)c3)c(F)c2)c(=O)n(-c2ccc(F)cc2)c1=O [Example 95] | 4.3 nM | 0.8 nM |
| CC(C)n1cc(C(=O)Nc2ccc(Oc3ccnc(Nc4ncc(Cl)cc4F)c3)c(F)c2)c(=O)n(-c2ccc(F)cc2)c1=O [Example 3] | 59 nM | 1730 nM |
| CC(C)n1cc(C(=O)Nc2ccc(Oc3ccnc(Nc4ccc(S(=O)(=O)N(C)C)cn4)c3)c(F)c2)c(=O)n(-c2ccc(F)cn2)c1=O [Example 48] | 15 nM | 4.4 nM |
| CC(C)n1cc(C(=O)Nc2ccc(Oc3ccnc(Nc4ccc(C(=O)NCCN5CCOCC5)cn4)c3)c(F)c2)c(=O)n(-c2ccc(F)cc2)c1=O [Example 93] | 1.6 nM | 0.4 nM |
| CC(C)n1cc(C(=O)Nc2ccc(Oc3ccnc(Nc4ccc(S(=O)(=O)N(C)C)c(N(C)C)n4)c3)c(F)c2)c(=O)n(-c2ccc(F)cc2)c1=O [Example 98, N-{4-[(2-{[6-(dimethylamino)-N,N-(dimethylsulfamoyl)pyridin-2-yl]amino}pyridin-4-yl)oxy]-3-fluorophenyl}-3-(4-fluorophenyl)-2,4-dioxo-1-(propan-2-yl)-1,2,3,4-tetrahydropyrimidine-5-carboxamide] | 22 nM | 36 nM |
| CN(C)S(=O)(=O)c1ccc(Nc2cc(Oc3ccc(NC(=O)c4cn([C@@H]5CCOC5)c(=O)n(-c5ccc(F)cc5)c4=O)cc3F)ccn2)nc1 [Example 46] | 12 nM | 5.4 nM |
| CC(C)n1cc(C(=O)Nc2ccc(Oc3ccnc(Nc4ccnc(N5CCCC5)n4)c3)c(F)c2)c(=O)n(-c2ccc(F)cc2)c1=O [Example 103, N-{3-fluoro-4-[(2-{[2-(pyrrolidin-1-yl)pyrimidin-4-yl]amino}pyridin-4-yl)oxy]phenyl}-3-(4-fluorophenyl)-2,4-dioxo-1-(propan-2-yl)-1,2,3,4-tetrahydropyrimidine-5-carboxamide] | 0.6 nM | 0.7 nM |
| COC(=O)N1CCN(c2nc(Nc3cc(Oc4ccc(NC(=O)c5cn(C(C)C)c(=O)n(-c6ccc(F)cc6)c5=O)cc4F)ccn3)ccc2C#N)CC1 [Example 119] | 1.5 nM | 4.2 nM |

| Compound | IC50 (GST-MERTK 578-872) | IC50 (HIS-AXL 473-End) |
| --- | --- | --- |
| CC(C)n1cc(C(=O)Nc2ccc(Oc3ccnc(Nc4ccc(C(=O)N(C)C)cn4)c3)c(F)c2)c(=O)n(-c2ccc(F)cc2)c1=O [Example 17] | 1.9 nM | 2.7 nM |
| COC[C@H](C)n1cc(C(=O)Nc2ccc(Oc3ccnc(Nc4ccc(S(=O)(=O)N(C)C)cn4)c3)c(F)c2)c(=O)n(-c2ccc(F)cc2)c1=O [Example 45] | 40 nM | 21 nM |
| CC(C)n1cc(C(=O)Nc2ccc(Oc3ccnc(Nc4ccc(C(C)(C)O)cn4)c3)c(F)c2)c(=O)n(-c2ccc(F)cc2)c1=O [Example 15] | 8 nM | 1.7 nM |
| CC(C)n1cc(C(=O)Nc2ccc(Oc3ccnc(Nc4cnc(C#N)cn4)c3)c(F)c2)c(=O)n(-c2ccc(F)cc2)c1=O [Example 26] | 60 nM | 18 nM |
| CC(=O)c1cccc(-n2c(=O)c(C(=O)Nc3ccc(Oc4ccnc(Nc5ccc(S(=O)(=O)N(C)C)cn5)c4)c(F)c3)cn(C(C)C)c2=O)c1 [Example 73] | 24 nM | 59 nM |
| Cc1cnc(Nc2cc(Oc3ccc(NC(=O)c4cn(C(C)C)c(=O)n(-c5ccc(F)cc5)c4=O)cc3F)ccn2)cc1C [Example 6] | 37 nM | 7.9 nM |
| CC(C)n1cc(C(=O)Nc2ccc(Oc3ccnc(Nc4ccc(NS(C)(=O)=O)cn4)c3)c(F)c2)c(=O)n(-c2ccc(F)cc2)c1=O [Example 87, N-[3-fluoro-4-({2-[(5-methanesulfonamidopyridin-2-yl)amino]pyridin-4-yl}oxy)phenyl]-3-(4-fluorophenyl)-2,4-dioxo-1-(propan-2-yl)-1,2,3,4-tetrahydropyrimidine-5-carboxamide] | 6.7 nM | 16 nM |
| CC(C)n1cc(C(=O)Nc2ccc(Oc3ccnc(Nc4ccc(-c5nccs5)cn4)c3)c(F)c2)c(=O)n(-c2ccc(F)cc2)c1=O [Example 23] | 55 nM | 31 nM |
| CC(C)n1cc(C(=O)Nc2ccc(Oc3ccnc(Nc4ccc(S(=O)(=O)N(C)C)cn4)c3)cc2)c(=O)n(-c2ccccc2)c1=O [Example 75, N-{4-[(2-{[5-(dimethylsulfamoyl)pyridin-2-yl]amino}pyridin-4-yl)oxy]phenyl}-2,4-dioxo-3-phenyl-1-(propan-2-yl)-1,2,3,4-tetrahydropyrimidine-5-carboxamide] | 42 nM | 3.5 nM |
| CC(C)n1cc(C(=O)Nc2ccc(Oc3ccnc(Nc4ccc(S(=O)(=O)N(C)C)cn4)c3)c(F)c2)c(=O)n(-c2ccccc2)c1=O [Example 42] | 21 nM | 7.4 nM |
| CC(C)n1cc(C(=O)Nc2ccc(Oc3ccnc(Nc4ccc(N5CCC(NC(=O)OC(C)(C)C)C5=O)cn4)c3)c(F)c2)c(=O)n(-c2ccc(F)cc2)c1=O (stereo not drawn) [Example 89] | 6.6 nM | 4.4 nM |
| CNS(=O)(=O)c1ccc(Nc2cc(Oc3ccc(NC(=O)c4cn(C(C)C)c(=O)n(-c5ccc(F)cc5)c4=O)cc3F)ccn2)nc1 [Example 77] | 8.3 nM | 5 nM |
| CC(C)n1cc(C(=O)Nc2ccc(Oc3ccnc(Nc4ccc(S(=O)(=O)N(C)C)cn4)c3)c(F)c2)c(=O)n(C2CCCCC2)c1=O [Example 53] | 487 nM | 256 nM |
| CC(C)n1cc(C(=O)Nc2ccc(Oc3ccnc(Nc4ccc(N5CCCC5=O)cn4)c3)c(F)c2)c(=O)n(-c2ccc(F)cc2)c1=O [Example 88, N-{3-fluoro-4-[(2-{[5-(2-oxopyrrolidin-1-yl)pyridin-2-yl]amino}pyridin-4-yl)oxy]phenyl}-3-(4-fluorophenyl)-2,4-dioxo-1-(propan-2-yl)-1,2,3,4-tetrahydropyrimidine-5-carboxamide] | 5.6 nM | 3.3 nM |
| CC(C)n1cc(C(=O)Nc2ccc(Oc3ccnc(Nc4ccnc(N5CCC(S(C)(=O)=O)CC5)n4)c3)c(F)c2)c(=O)n(C23CC(C2)C3)c1=O [Example 113] | 2.8 nM | 4.8 nM |
| CC(C)n1cc(C(=O)Nc2ccc(Oc3ccnc(Nc4ccc(N5CCC(N)C5=O)cn4)c3)c(F)c2)c(=O)n(-c2ccc(F)cc2)c1=O (stereo not drawn) [Example 90] | 3.1 nM | 2.2 nM |
